Article PMC9793461 (ADMET & DMPK, 2022)
Values after ≈ are worked out from the molar mass of the structure shown.

Legend:
[1] = Solubility of DEX in vegetable oils with cosolvents (shaker, HPLC); type: physicochemical; details: oil or lipid, thermodynamic from solid, 24 hours incubation
Experimental: After centrifugation, 200 μL of supernatant was diluted with 600 μL of tetrahydrofuran and 800 μL of acetonitrile in vials for the HPLC analysis. All samples were prepared in triplicates. Castor oil combined with 20 % (v/v) of isopropanol and castor oil with 20 % (v/v) of Capryol® 90 were chosen as the best formulations for the following experiments.
Samples from the solubility and partitioning studies were analysed on HPLC system Agilent 1100/1200 series connected to diode array detector adjusted to 241 nm. Kinetex C18 column (4.6 x 50 mm, particles 2.6 μm and pore size 100 Å) by Phenomenex (USA), heated to 40 °C, was used. The chromatograms were obtained with a gradient elution, where acetonitrile and buffer pH 2.0 were components of the mobile phase. Injector temperature was adjusted at 35 °C, the flow rate at 1.8 ml/min and sample injection volume at 10 μL. […] The two working standard solutions were obtained by further diluting the stock solution. […] The second standard solution was prepared by diluting 1 mL of stock solution in 100 mL acetonitrile. It was used for DEX assay in solutions composed of four other oils.

[2] = cited from earlier work
[3] = phosphate buffer pH 7.4 with 10 % (v/v) ethanol; cited from earlier work

## C[C@@H]1C[C@H]2[C@@H]3CCC4=CC(=O)C=C[C@]4(C)[C@@]3(F)[C@@H](O)C[C@]2(C)[C@@]1(O)C(=O)CO [DEX, Dexamethasone]
[1]; castor oil with 20 % (v/v) Capryol 90, 37 °C
  solubility at 24 h: ~1200 µg/mL (≈ 3.06 mM)
[1]; castor oil with 20 % (v/v) isopropanol, 37 °C
  solubility at 24 h: ~2300 µg/mL (≈ 5.86 mM)
[2]
  solubility in ethanol: sparingly soluble
  solubility in water: practically insoluble
[3]
  solubility of DEX: 170 µg/mL
